In publication PMC7689250, “Synthetic Peptide Libraries Designed From a Minimal Alpha-Helical Domain of AS-48-Bacteriocin Homologs Exhibit Potent Antibacterial Activity” (Frontiers in Microbiology, 2020):
Where two headings read alike, the source gives them in different places. Residues, ends and D or L forms follow the SMILES beside them.

Columns and labels:
S. pyogenes (M1) = format: cell-based, Streptococcus pyogenes; conditions: for MBC: M1; for MIC: M1, 16 h
How it was run: (§1)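 MIC in Mueller-Hinton broth with 1 × 10^6 CFU/mL bacteria, overnight cultures grown first in LB (E. coli, P. aeruginosa, S. aureus) or Todd-Hewitt (S. pyogenes); growth read as OD 600. Library members screened at half the parent peptide MIC; MBC as lowest concentration giving no colonies after plating MIC wells, 37°C overnight.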

S. aureus (USA300) = format: cell-based, Staphylococcus aureus; conditions: for MBC: USA300; for MIC: USA300, 16 h
How it was run: as §1

sheep erythrocytes = format: cell-based; conditions: red cells of sheep, 1 h
How it was run: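 Washed defibrinated sheep blood, diluted 1:25 in PBS, incubated 1 h at 37 °C with peptide at the MIC-assay concentrations (sample:blood 1:10). Haemoglobin release read as supernatant absorbance at 450 nm; percent haemolysis normalised to PBS and 10% Triton controls.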

E. coli (BL21) = format: cell-based, Escherichia coli
How it was run: as §1

P. aeruginosa (PAO1) = format: cell-based, Pseudomonas aeruginosa; conditions: for MBC: PAO1
How it was run: as §1

[1] = tested on: GFP-expressing E. coli strain BL21; test: Live imaging of GFP leakage; format: cell-based, Escherichia coli; conditions: 16 μM peptide, 8 h, 37°C, images every 10 min
Experimental: To observe bacterial cell death in the presence of peptide in real time, fluorescence microscopy was employed using GFP-expressing E. coli strain BL21. MIC assays were conducted against BL21-GFP to determine the peptide concentration used for microscopy experiments. The peptide was suspended in PBS and added to diluted bacterial cells. GFP-expressing E. coli in the presence of peptide were imaged on the Eclipse Ti-E inverted microscope (Nikon) using GFP and DIC channels for 8 h at 37°C, with images taken every 10 min ([Fields et al., 2020]). Syn-xiamencin-2, a peptide with no detectable antimicrobial activity below 128 μM was also evaluated as a negative peptide candidate control.

[2] = tested on: human keratinocyte cell line (HaCaT); test: HaCaT cytotoxicity, ethidium homodimer assay; format: cell-based; conditions: 16 h, 37°C, DMEM + 10% FBS, normalised to saponin, triplicate
Experimental: To assess cytotoxicity of optimized peptides in mammalian cells, an immortalized human keratinocyte cell line (HaCaT) was used. Cells were grown to 80% confluency in 24-well culture dishes and washed with PBS (Thermo Fisher). […] After incubation, the cells were washed with sterile PBS, followed by a covered incubation with 4 μM ethidium homodimer (Molecular Probes) for 30 min at room temperature. Fluorescence was measured using the Synergy H1 Microplate Reader set to 528 nm excitation, 617 nm emission, and a cutoff value of 590 nm. Saponin (0.1% wt/vol, Sigma) was added to each well followed by a covered incubation for 20 min at room temperature, followed by another measurement on the Synergy H1 Microplate Reader using the same settings to normalize readings to the number of cells per well and determine the percent cytotoxicity.

[3] = E. coli BL21, running text b43, unit printed nm

SMILES | MBC (S. pyogenes (M1)) [µM] | MIC (S. pyogenes (M1)) [µM] | MBC (S. aureus (USA300)) [µM] | MIC (S. aureus (USA300)) [µM] | Percent Hemolysis (sheep erythrocytes) [%] | MIC (E. coli (BL21); BL21) [µM] | MIC (E. coli (BL21); BL21, 16 h) [µM] | MBC (E. coli (BL21); [3]) | MIC (E. coli (BL21); [3]) | MBC (P. aeruginosa (PAO1)) [µM] | MIC (P. aeruginosa (PAO1); PAO1, 16 h) [µM] | GFP leakage / change in fluorescence [1] | concentration at which peptide is cytotoxic [2] [µM] | MBC (E. coli (BL21); BL21) [µM] | MIC (P. aeruginosa (PAO1); P. aeruginosa PAO1, broth microdilution, Mueller-Hinton broth, 1 × 10^6 CFU/mL, 16 h, OD600, triplicate) [µM] | MIC (E. coli (BL21); E. coli BL21) [µM]
CC[C@H](C)[C@H](NC(=O)[C@H](CCCCN)NC(=O)[C@H](CCCCN)NC(=O)CNC(=O)[C@H](CCC(=O)O)NC(=O)[C@H](CCC(N)=O)NC(=O)[C@@H](NC(=O)[C@@H](NC(=O)[C@H](CCCCN)NC(=O)[C@H](CCCCN)NC(=O)[C@H](CC(C)C)NC(=O)[C@H](CCCNC(=N)N)NC(=O)[C@H](CCC(N)=O)NC(=O)[C@H](Cc1ccccc1)NC(=O)[C@@H](NC(=O)[C@H](CCCCN)NC(=O)[C@H](CCC(=O)O)NC(=O)[C@@H](NC(=O)[C@H](Cc1c[nH]c2ccccc12)NC(=O)[C@H](C)N)[C@@H](C)O)[C@@H](C)CC)[C@@H](C)O)[C@@H](C)CC)C(=O)N[C@@H](C)C(=O)N[C@@H](CCCCN)C(=O)N[C@@H](CCCNC(=N)N)C(=O)N[C@@H](C)C(=O)N[C@@H](Cc1c[nH]c2ccccc12)C(=O)O [Syn-larvacin-39] (H-AWTEKIFQRLKKTIQEGKKIAKRAW-OH; N-terminus and C-terminus assumed) | 4 | 2 | 4 | 1 | 14.4 | 0.0156 | <0.0156 | below 15.6 nM | below 15.6 nM | 64 | 16 | significant decrease in fluorescence |  |  |  | 
CC[C@H](C)[C@H](NC(=O)[C@H](CCCNC(=N)N)NC(=O)[C@H](CCC(N)=O)NC(=O)[C@@H](NC(=O)[C@H](Cc1c[nH]c2ccccc12)NC(=O)[C@H](C)N)[C@@H](C)O)C(=O)N[C@@H](CCCCN)C(=O)N[C@@H](C)C(=O)N[C@@H](Cc1ccc(O)cc1)C(=O)N[C@@H](CC(C)C)C(=O)N[C@@H](CCCNC(=N)N)C(=O)N[C@@H](CCCNC(=N)N)C(=O)N[C@@H](CCC(=O)O)C(=O)N[C@H](C(=O)N[C@@H](CCCNC(=N)N)C(=O)N[C@@H](CCCCN)C(=O)N[C@@H](CCCNC(=N)N)C(=O)NCC(=O)N[C@@H](CCCNC(=N)N)C(=O)N[C@@H](CCCCN)C(=O)N[C@@H](C)C(=O)N[C@H](C(=O)N[C@H](C(=O)N[C@@H](C)C(=O)N[C@@H](Cc1c[nH]c2ccccc12)C(=O)O)[C@@H](C)CC)C(C)C)[C@@H](C)CC [Syn-sordellicin-19] (H-AWTQRIKAYLRREIRKRGRKAVIAW-OH; N-terminus and C-terminus assumed) | 2 | 2 | >128 | >128 |  |  | 2 |  |  | 16 | 8 |  | ≥ 64 | 2 |  | 
CC[C@H](C)[C@H](NC(=O)[C@H](CCCNC(=N)N)NC(=O)[C@H](CCC(N)=O)NC(=O)[C@H](Cc1c[nH]c2ccccc12)NC(=O)CNC(=O)[C@H](C)N)C(=O)N[C@@H](CCCCN)C(=O)N[C@@H](C)C(=O)N[C@@H](Cc1ccc(O)cc1)C(=O)N[C@@H](CC(C)C)C(=O)N[C@@H](CCCNC(=N)N)C(=O)N[C@@H](CCCNC(=N)N)C(=O)N[C@@H](CCC(=O)O)C(=O)N[C@H](C(=O)N[C@@H](CCCNC(=N)N)C(=O)N[C@@H](CCCCN)C(=O)N[C@@H](CCCNC(=N)N)C(=O)NCC(=O)N[C@@H](CCCNC(=N)N)C(=O)N[C@@H](CCCCN)C(=O)N[C@@H](C)C(=O)N[C@H](C(=O)N[C@H](C(=O)N[C@@H](C)C(=O)N[C@@H](Cc1c[nH]c2ccccc12)C(=O)O)[C@@H](C)CC)C(C)C)[C@@H](C)CC [Syn-sordellicin-43] (H-AGWQRIKAYLRREIRKRGRKAVIAW-OH; N-terminus and C-terminus assumed) | 4 | 2 | 32 | 32 | 11.2 |  | 1 |  |  | 4 |  | significant decrease in fluorescence |  | 1 | 2 | 
CC[C@H](C)[C@H](NC(=O)[C@H](CCCNC(=N)N)NC(=O)CNC(=O)[C@@H](NC(=O)[C@H](CCCCN)NC(=O)[C@H](CCCNC(=N)N)NC(=O)[C@@H](NC(=O)[C@H](Cc1ccc(O)cc1)NC(=O)[C@H](CCCNC(=N)N)NC(=O)[C@H](CCCNC(=N)N)NC(=O)[C@H](CC(C)C)NC(=O)[C@H](CCC(=O)O)NC(=O)[C@H](CCCCN)NC(=O)[C@H](C)NC(=O)[C@@H](NC(=O)[C@H](CCCNC(=N)N)NC(=O)[C@H](CC(N)=O)NC(=O)[C@@H](NC(=O)CNC(=O)[C@H](C)N)[C@@H](C)O)[C@@H](C)CC)[C@@H](C)CC)C(C)C)C(=O)N[C@@H](C)C(=O)N[C@@H](CCCNC(=N)N)C(=O)N[C@@H](CCCCN)C(=O)N[C@@H](Cc1c[nH]c2ccccc12)C(=O)N[C@@H](Cc1c[nH]c2ccccc12)C(=O)O [Syn-sordellicin-64] (H-AGTNRIAKELRRYIRKVGRIARKWW-OH; N-terminus and C-terminus assumed) | 1 | 1 | 8 | 8 | 18.8 |  |  |  |  | 8 | 8 |  | ≥ 32 | 0.5 |  | 0.25
CC[C@H](C)[C@H](NC(=O)[C@H](Cc1ccccc1)NC(=O)[C@H](C)NC(=O)[C@H](CCCCN)NC(=O)[C@H](CCCCN)NC(=O)CNC(=O)[C@H](CCCNC(=N)N)NC(=O)[C@H](CCCCN)NC(=O)[C@H](CCCNC(=N)N)NC(=O)[C@H](CC(C)C)NC(=O)[C@H](CCC(=O)O)NC(=O)[C@H](CCC(=O)O)NC(=O)[C@H](CC(C)C)NC(=O)[C@H](CC(C)C)NC(=O)[C@H](Cc1ccc(O)cc1)NC(=O)[C@H](CCCCN)NC(=O)[C@@H](NC(=O)[C@H](CC(C)C)NC(=O)[C@H](C)NC(=O)[C@H](CCC(N)=O)NC(=O)[C@H](CCCNC(=N)N)NC(=O)[C@H](CCCCN)NC(=O)[C@H](C)N)[C@@H](C)O)C(=O)N[C@@H](C)C(=O)N[C@@H](Cc1c[nH]c2ccccc12)C(=O)O [Syn-xiamencin-92] (H-AKRQALTKYLLEELRKRGKKAFIAW-OH; N-terminus and C-terminus assumed) | 8 | 4 | 8 | 8 | 18.8 |  | 4 |  |  | 16 | 16 |  |  | 8 |  | 
CC[C@H](C)[C@H](NC(=O)[C@H](CCCCN)NC(=O)CNC(=O)[C@H](Cc1ccccc1)NC(=O)[C@H](CCCCN)NC(=O)[C@H](CCCNC(=N)N)NC(=O)[C@H](CC(C)C)NC(=O)[C@H](Cc1ccc(O)cc1)NC(=O)[C@H](CCC(=O)O)NC(=O)[C@H](CC(C)C)NC(=O)[C@H](CC(C)C)NC(=O)[C@H](CCC(=O)O)NC(=O)[C@H](CCCCN)NC(=O)[C@@H](NC(=O)[C@H](CC(C)C)NC(=O)[C@H](CCCNC(=N)N)NC(=O)[C@H](CC(N)=O)NC(=O)[C@H](C)NC(=O)[C@H](CCCCN)NC(=O)[C@H](C)N)[C@@H](C)O)C(=O)N[C@@H](C)C(=O)N[C@@H](CCCNC(=N)N)C(=O)N[C@@H](CCCCN)C(=O)N[C@@H](C)C(=O)N[C@@H](Cc1c[nH]c2ccccc12)C(=O)O [Syn-xiamencin-96] (H-AKANRLTKELLEYLRKFGKIARKAW-OH; N-terminus and C-terminus assumed) | 4 | 4 | 8 | 8 | 20.0 |  | 2 |  |  | 16 | 16 |  |  | 2 |  | 
